Key:
[1] = test system: central DA-receptor (pre- and/or postsynaptic); test: Rat-brain in-vivo tyrosine hydroxylation: Dopa accumulation after NSD 1015 in reserpine-pretreated rats; conditions: reserpine-pretreated rats; for biochemical activity (Dopa accumulation), in words: inactive even at 45 μmol/kg
Experimental: The compounds under evaluation were tested biochemically for central DA-receptor (pre- and/or postsynaptic) stimulating activity. The concept of this biochemical screening method is that a DA-receptor agonist will stimulate the receptor and through regulatory feedback systems effect a decline in tyrosine hydroxylase activity and thus a subsequent reduction in the synthesis rate for DA in the presynaptic neuron. Dopa formation, as determined after in-vivo inhibition of the aromatic L-amino acid decarboxylase with NSD 1015 (3-hydroxybenzyl-hydrazine hydrochloride), is taken as an indirect measure of DA synthesis rate.
Rats (150-300 g) pretreated with reserpine were given the compounds under evaluation. Gross behavioural observations (changes in motility, stereotypies etc.) were made in order to evaluate possible postsynaptic dopamine receptor activity. subsequent administration of NSD 1015, decapitation, brain dissection [corpora striata, limbic fore-brain and rest of the hemispheral parts (cortex)]homogenization, centrifugation, ion-exchange chromatography and spectro-fluorimetric measurements (all as described in detail by Wikstrom et al., in J. Med. Chem. 21, 864-867, 1978 and references cited therein), gave the actual Dopa levels.
Several doses (n=4-6) were tested in order to obtain dose-response curves for each compound and brain area. The dose of a compound producing a half-maximal decrease in the Dopa level in the rat brain part was then estimated. These values (ED50) are presented in Table I. (Simultaneous determination of the 5-HTP levels was also performed utilizing the same paradigm.)
^b Rats pretreated with reserpine (10 mg/kg i.p.; 18 h) were given th
compounds under evaluation. Fortyfive minutes later they were injected
with NSD 1015 (100 mg/kg i.p.) and after a further 30 min they were
decapitated, the brains rapidly dissected and taken for determination of
the Dopa and 5HTP levels in different areas of the brain. The dose of a
compound producing a halfmaximal decrease (ED50) in the Dopa level i
the rat brain part was then estimated from doseresponse curves comprising
4-6 dose levels. (For further details see the text and references).

[2] = test system: postsynaptic DA receptors; test: Antagonism of the reserpine plus α-methyl-para-tyrosine-induced immobility (neuroleptic syndrome) in rats; motor activity

Structure (SMILES)	Dopa-accumulation; ED50, Limbic (class symbol) ([1]; limbic forebrain, s.c.)	biochemical activity (Dopa accumulation), in words [1]	Dopa-accumulation; ED50, Striatum (class symbol) ([1]; striatum, s.c.)	Dopa-accumulation; ED50, Limbic ([1]; limbic forebrain, half-maximal decrease in Dopa level, s.c.)	Dopa-accumulation; ED50, Striatum ([1]; striatum, half-maximal decrease in Dopa level, s.c.)	Motor activity ([2]; 10 mg/kg s.c., reserpine 10 mg/kg + α-methyl-para-tyrosine 250 mg/kg i.p., means ± s.e.m.)	antagonism of the reserpine-induced syndrome / behaviour elicited ([2]; reserpine and α-methyl-para-tyrosine pretreated rats)
CCCN(CCC)C1CCc2c(O)cccc2C1(C)C (stereo not shown) [1,1-di-CH35-OHDPAT, 1,1di-CH35-OH2-(di-n-propylamino) tetralin]	I (Inactive. ED50 > 45 μmol/kg.)	completely inactive	I (Inactive. ED50 > 45 μmol/kg.)				
CCCNC1CCc2c(O)cccc2C1(C)C (stereo not shown) [1,1-di-CH35-OHPAT, 1,1di-CH35-OH2-(n-propylamino)tetralin]	I (Inactive. ED50 > 45 μmol/kg.)	completely inactive	I (Inactive. ED50 > 45 μmol/kg.)				
CCCN1CCCC(c2cccc(O)c2)C1 (stereo not shown) [Compound 3-PPP, 3-(3-hydroxyphenyl)-N-n-propylpiperidine]				3.6 μmol/kg s.c.	3.6 μmol/kg s.c.	51 ± 19 counts 0-60 min	inability of compound 2 to antagonize the reserpine-induced syndrome is shared by the selective Da-autoreceptor agonist 3-PPP

Source: patent publication US4876284A, “1-alkyl-2-aminotetralin derivatives” (Per Arvid Emil Carlsson, priority 1981, dated 1989)
